Experimental data published in ChEMBL document CHEMBL5465560, “Selectivity Literature for EUbOPEN Chemogenomic Library” (2024).

How the values were obtained:
[1] = target: cAMP-dependent protein kinase catalytic subunit beta (Homo sapiens) (UniProt P22694); experiment: Selectivity interaction (KinomeScan (DiscoverX)) EUB0000229b PRKACB; conditions: at 10 µM
[2] = target: T1, Mitogen-activated protein kinase kinase kinase 2 (Homo sapiens) (UniProt Q9Y2U5); experiment: Selectivity interaction (KinomeScan (DiscoverX)) EUB0001079a MAP3K2; conditions: at 1 µM
T1 sequence (whole entry): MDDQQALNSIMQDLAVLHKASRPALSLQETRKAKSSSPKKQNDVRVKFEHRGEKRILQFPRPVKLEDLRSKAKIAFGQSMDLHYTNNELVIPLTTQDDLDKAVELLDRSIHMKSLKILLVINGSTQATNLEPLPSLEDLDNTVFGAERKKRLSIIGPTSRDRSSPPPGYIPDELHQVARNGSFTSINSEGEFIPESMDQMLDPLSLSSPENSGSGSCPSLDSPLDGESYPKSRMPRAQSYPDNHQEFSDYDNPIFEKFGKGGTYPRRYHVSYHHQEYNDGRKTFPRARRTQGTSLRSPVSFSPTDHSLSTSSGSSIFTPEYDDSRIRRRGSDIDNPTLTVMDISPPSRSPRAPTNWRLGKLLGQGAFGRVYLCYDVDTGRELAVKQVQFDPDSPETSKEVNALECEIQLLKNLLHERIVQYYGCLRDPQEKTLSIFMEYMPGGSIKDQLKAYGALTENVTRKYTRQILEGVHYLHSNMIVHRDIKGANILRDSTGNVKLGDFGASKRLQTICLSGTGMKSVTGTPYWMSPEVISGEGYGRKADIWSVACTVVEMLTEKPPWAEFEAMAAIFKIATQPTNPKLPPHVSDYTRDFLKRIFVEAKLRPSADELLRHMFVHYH

[3] = target: Ribosomal protein S6 kinase alpha-4 (Homo sapiens) (UniProt O75676); experiment: Selectivity interaction (KinomeScan (DiscoverX)) EUB0000666a RPS6KA4; conditions: at 10 µM
[4] = target: T2, Serine/threonine-protein kinase Nek9 (Homo sapiens) (UniProt Q8TD19); experiment: Selectivity interaction (KinomeScan (DiscoverX)) EUB0000045b NEK9
T2 sequence (whole entry): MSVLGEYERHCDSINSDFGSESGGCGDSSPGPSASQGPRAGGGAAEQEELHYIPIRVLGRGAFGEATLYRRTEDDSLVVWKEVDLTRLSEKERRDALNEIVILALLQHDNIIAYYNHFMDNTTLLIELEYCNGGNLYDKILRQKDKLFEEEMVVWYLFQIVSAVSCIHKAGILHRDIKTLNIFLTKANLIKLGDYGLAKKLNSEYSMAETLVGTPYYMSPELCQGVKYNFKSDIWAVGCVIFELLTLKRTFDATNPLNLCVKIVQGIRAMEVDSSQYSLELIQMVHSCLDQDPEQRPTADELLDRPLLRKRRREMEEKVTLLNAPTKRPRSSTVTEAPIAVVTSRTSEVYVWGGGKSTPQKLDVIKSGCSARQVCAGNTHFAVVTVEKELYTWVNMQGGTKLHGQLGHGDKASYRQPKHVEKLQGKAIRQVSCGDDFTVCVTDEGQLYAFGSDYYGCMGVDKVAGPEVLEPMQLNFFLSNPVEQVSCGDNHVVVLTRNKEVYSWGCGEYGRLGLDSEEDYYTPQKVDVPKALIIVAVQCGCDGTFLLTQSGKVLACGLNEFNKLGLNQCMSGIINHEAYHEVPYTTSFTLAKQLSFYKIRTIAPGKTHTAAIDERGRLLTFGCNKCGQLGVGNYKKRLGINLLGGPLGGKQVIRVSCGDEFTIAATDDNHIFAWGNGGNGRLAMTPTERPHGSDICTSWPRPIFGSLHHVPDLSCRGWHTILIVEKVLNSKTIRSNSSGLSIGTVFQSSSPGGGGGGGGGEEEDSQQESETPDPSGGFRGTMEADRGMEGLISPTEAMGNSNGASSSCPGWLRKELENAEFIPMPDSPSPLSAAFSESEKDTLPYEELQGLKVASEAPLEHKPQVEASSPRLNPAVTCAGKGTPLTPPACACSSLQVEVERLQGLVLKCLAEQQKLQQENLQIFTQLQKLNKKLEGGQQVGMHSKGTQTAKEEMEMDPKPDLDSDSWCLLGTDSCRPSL

[5] = target: T3, cGMP-dependent protein kinase 2 (Homo sapiens) (UniProt Q13237); experiment: Selectivity interaction (KinomeScan (DiscoverX)) EUB0000618a PRKG2; conditions: at 10 µM
T3 sequence (whole entry): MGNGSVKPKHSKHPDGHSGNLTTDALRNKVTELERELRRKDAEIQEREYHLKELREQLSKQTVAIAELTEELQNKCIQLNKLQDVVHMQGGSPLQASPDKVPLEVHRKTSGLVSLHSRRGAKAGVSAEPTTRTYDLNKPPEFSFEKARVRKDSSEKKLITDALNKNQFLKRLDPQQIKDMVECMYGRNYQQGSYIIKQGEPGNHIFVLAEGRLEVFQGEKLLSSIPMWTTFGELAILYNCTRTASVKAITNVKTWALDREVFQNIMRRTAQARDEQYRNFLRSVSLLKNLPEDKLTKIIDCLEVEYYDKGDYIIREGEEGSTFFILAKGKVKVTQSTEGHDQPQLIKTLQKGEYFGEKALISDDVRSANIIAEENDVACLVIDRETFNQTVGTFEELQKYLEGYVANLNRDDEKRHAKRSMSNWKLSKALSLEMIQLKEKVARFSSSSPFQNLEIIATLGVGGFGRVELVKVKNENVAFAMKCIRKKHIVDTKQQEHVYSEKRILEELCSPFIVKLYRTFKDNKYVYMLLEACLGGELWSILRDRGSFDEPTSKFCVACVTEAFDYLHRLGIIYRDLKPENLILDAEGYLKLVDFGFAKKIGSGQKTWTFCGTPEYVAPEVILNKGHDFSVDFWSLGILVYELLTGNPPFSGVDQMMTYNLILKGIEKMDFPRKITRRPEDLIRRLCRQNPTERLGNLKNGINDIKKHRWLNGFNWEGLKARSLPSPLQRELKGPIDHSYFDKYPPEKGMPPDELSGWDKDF

Sequence of Ribosomal protein S6 kinase alpha-4 (Homo sapiens) (O75676 whole entry, looked up): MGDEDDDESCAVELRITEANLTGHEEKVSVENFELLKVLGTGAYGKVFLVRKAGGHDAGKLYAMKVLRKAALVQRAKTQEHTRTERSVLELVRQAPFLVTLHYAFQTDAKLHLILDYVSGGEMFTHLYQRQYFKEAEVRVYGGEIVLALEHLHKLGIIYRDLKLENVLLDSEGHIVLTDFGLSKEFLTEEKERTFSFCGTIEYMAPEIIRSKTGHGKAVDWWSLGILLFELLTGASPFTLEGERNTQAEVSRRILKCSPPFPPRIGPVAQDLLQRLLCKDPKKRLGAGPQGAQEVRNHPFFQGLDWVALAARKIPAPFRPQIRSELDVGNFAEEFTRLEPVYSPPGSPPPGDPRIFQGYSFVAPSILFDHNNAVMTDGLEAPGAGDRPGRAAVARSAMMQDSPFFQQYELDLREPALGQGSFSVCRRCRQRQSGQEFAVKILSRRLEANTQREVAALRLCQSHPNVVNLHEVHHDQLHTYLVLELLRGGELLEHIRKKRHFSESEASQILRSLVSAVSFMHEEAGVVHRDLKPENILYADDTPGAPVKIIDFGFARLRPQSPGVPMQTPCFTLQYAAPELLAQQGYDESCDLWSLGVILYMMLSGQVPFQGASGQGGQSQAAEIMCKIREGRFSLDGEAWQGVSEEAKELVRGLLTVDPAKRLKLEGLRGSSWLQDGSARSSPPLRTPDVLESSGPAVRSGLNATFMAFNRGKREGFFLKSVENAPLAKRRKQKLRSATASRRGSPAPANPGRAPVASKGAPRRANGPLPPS

For `COc1cc(N(C)c2ccnc3ccc(C(F)(F)F)cc23)cc(OC)c1OC`, the % binding [1] was 75%.

Compound `Nc1cnc(N2CCc3cc(S(=O)(=O)Nc4c(F)cc(Cl)cc4F)cc(N4CCCC4=O)c32)nc1` [TP-020n] has a % of control [2] of 100%.

In the case of `O=C(NOC[C@H](O)CO)c1ccc(F)c(F)c1Nc1ccc(I)cc1F`, the % of control [3] is reported as 100%.

`C=CC(=O)Nc1cc(-n2c(=O)ccc3cnc4ccc(-c5ccc(NS(C)(=O)=O)cc5)cc4c32)ccc1C` gave a % of control ([4]; at 1 µM) of 100% and a % of control ([4]; at 10 µM) of 65%.

In the case of `O[C@H]1CC[C@H](Nc2ncc3nc(Nc4c(F)cc(F)cc4F)n([C@H]4CCOC4)c3n2)CC1`, the % of control [5] is reported as 100%.
